Test results reported in the supplement of paper PMC10307832.

Columns and labels:
Assay in all cases: relative viability (nuclei count vs DMSO), 5 days (fraction); higher = more cells survive
AT-7519 + Luminespib = compound: O=C(NC1CCNCC1)c1n[nH]cc1NC(=O)c1c(Cl)cccc1Cl [AT-7519] + CCNC(=O)c1noc(-c2cc(C(C)C)c(O)cc2O)c1-c1ccc(CN2CCOCC2)cc1 [Luminespib] (partner 0.01 µM)
Summary of the method: (§1)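 Cells from lung cancer lines were seeded into 1536-well plates and, one day later, dosed by pin tool. Treatments were either a single drug or a fixed dose of an anchor drug with five library-drug doses (not always all listed) in √10 steps. After 5 days, nuclei were stained in a one-step fixation (final 0.05% Triton X-100, 1% formaldehyde, 1 ug/ml Hoechst) and counted on 4× images, and relative viability is the treated-to-vehicle nuclei ratio, as the median of duplicate plates.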

AT-7519 + Tozasertib = compound: O=C(NC1CCNCC1)c1n[nH]cc1NC(=O)c1c(Cl)cccc1Cl [AT-7519] + Cc1cc(Nc2cc(N3CCN(C)CC3)nc(Sc3ccc(NC(=O)C4CC4)cc3)n2)n[nH]1 [Tozasertib] (partner 0.1 µM)
Summary of the method: as §1

[1] = compound: C1=CC2=C(C=C(C(=C2N=C1)O)N=NC3=CC4=C(C=C3)C=C(C=C4)S(=O)(=O)O)S(=O)(=O)O + O=C(CCCCCCC(=O)Nc1ccccc1)NO [Vorinostat] (partner 1 µM)
Summary of the method: as §1

AT-7519 + Olaparib = compound: O=C(NC1CCNCC1)c1n[nH]cc1NC(=O)c1c(Cl)cccc1Cl [AT-7519] + O=C(c1cc(Cc2n[nH]c(=O)c3ccccc23)ccc1F)N1CCN(C(=O)C2CC2)CC1 [Olaparib] (partner 8 µM)
Summary of the method: as §1

| Cell Line | relative viability (AT-7519 + Luminespib; first compound 0.01 µM) | relative viability (AT-7519 + Luminespib; first compound 0.03162 µM) | relative viability (AT-7519 + Luminespib; first compound 0.3162 µM) | relative viability (AT-7519 + Luminespib; first compound 1 µM) | relative viability (AT-7519 + Tozasertib; first compound 0.01 µM) | relative viability (AT-7519 + Tozasertib; first compound 0.03162 µM) | relative viability (AT-7519 + Tozasertib; first compound 0.3162 µM) | relative viability (AT-7519 + Tozasertib; first compound 1 µM) | relative viability ([1]; first compound 0.08 µM) | relative viability ([1]; first compound 0.253 µM) | relative viability ([1]; first compound 0.8 µM) | relative viability ([1]; first compound 2.53 µM) | relative viability ([1]; first compound 8 µM) | relative viability (AT-7519 + Olaparib; first compound 0.01 µM) | relative viability (AT-7519 + Olaparib; first compound 0.03162 µM) | relative viability (AT-7519 + Olaparib; first compound 0.3162 µM) | relative viability (AT-7519 + Olaparib; first compound 1 µM) |
| --- | --- | --- | --- | --- | --- | --- | --- | --- | --- | --- | --- | --- | --- | --- | --- | --- | --- |
| NCI-H2342 | 0.646 | 0.759 | 0.613 | 0.587 | 0.483 | 0.52 | 0.493 | 0.557 | 0.834 | 0.709 | 0.72 | 0.695 | 0.688 | 0.391 | 0.427 | 0.454 | 0.443 |
| HCC-15 | 0.293 | 0.413 | 0.343 | 0.214 | 0.378 | 0.524 | 0.434 | 0.199 | 0.818 | 0.857 | 0.779 | 0.826 | 0.827 | 0.712 | 0.772 | 0.73 | 0.355 |
| A-427 | 1.07 | 0.88 | 1.06 | 0.184 | 0.26 | 0.211 | 0.207 | 0.14 | 0.894 | 0.821 | 0.796 | 0.861 | 0.924 | 0.806 | 0.745 | 0.713 | 0.382 |
| NCI-H2228 | 0.152 | 0.174 | 0.156 | 0.165 | 0.253 | 0.273 | 0.227 | 0.179 | 0.966 | 0.518 | 0.468 | 0.652 | 0.589 | 0.54 | 0.602 | 0.569 | 0.208 |
| NCI-H1734 | 0.2 | 0.174 | 0.164 | 0.0866 | 0.296 | 0.261 | 0.25 | 0.102 | 0.788 | 0.852 | 0.757 | 0.718 | 0.859 | 0.535 | 0.585 | 0.537 | 0.263 |
| PC-14 | 0.196 | 0.151 | 0.151 | 0.111 | 0.591 | 0.677 | 0.526 | 0.392 | 0.815 | 0.83 | 0.816 | 0.745 | 0.752 | 0.234 | 0.227 | 0.231 | 0.104 |
| NCI-H1915 | 0.687 | 0.798 | 0.729 | 0.62 | 0.482 | 0.461 | 0.456 | 0.347 | 0.539 | 0.547 | 0.518 | 0.513 | 0.527 | 0.25 | 0.273 | 0.292 | 0.208 |
| NCI-H1666 | 1.06 | 0.943 | 0.988 | 0.585 | 0.539 | 0.571 | 0.501 | 0.413 | 1.05 | 0.98 | 1.03 | 1.07 | 0.985 | 0.674 | 0.724 | 0.68 | 0.65 |
| HCC-366 |  |  |  |  | 0.0905 | 0.186 | 0.119 | 0.0621 | 0.442 | 0.463 | 0.392 | 0.338 | 0.328 | 0.409 | 0.424 | 0.281 | 0.164 |
| SK-MES-1 | 0.847 | 0.734 | 0.593 | 0.33 | 0.928 | 1 | 0.814 | 0.243 | 1.16 | 1.12 | 0.985 | 1.06 | 1.17 | 0.662 | 0.791 | 0.56 | 0.257 |
| SW 1573 | 0.223 | 0.203 | 0.149 | 0.126 | 0.151 | 0.151 | 0.143 | 0.125 | 0.92 | 0.915 | 0.531 | 0.828 | 0.519 | 0.463 | 0.505 | 0.2 | 0.0972 |
| NCI-H661 | 1.01 | 0.92 | 0.975 | 0.219 | 0.378 | 0.352 | 0.392 | 0.314 | 0.765 | 0.756 | 0.783 | 0.785 | 0.796 | 0.775 | 0.834 | 0.762 | 0.251 |
| PC-3 [JPC-3] | 0.515 | 0.558 | 0.694 | 0.623 | 0.93 | 0.903 | 0.88 | 0.902 | 0.648 | 0.819 | 0.751 | 0.843 | 0.709 | 1.19 | 1.1 | 1.09 | 0.981 |
| NCI-H1623 | 0.534 | 0.449 | 0.397 | 0.307 | 0.378 | 0.401 | 0.518 | 0.393 |  |  |  |  |  |  |  |  |  |
| Calu-6 |  |  |  |  |  |  |  |  |  |  |  |  |  | 0.622 | 0.641 | 0.688 | 0.262 |
| LC-2-ad | 1.03 | 0.892 | 1.17 | 0.501 | 0.49 | 0.467 | 0.519 | 0.266 | 0.702 | 0.744 | 0.729 | 0.699 | 0.725 | 0.75 | 0.726 | 0.736 | 0.622 |
| CAL-12T | 0.438 | 0.509 | 0.15 | 0.0831 | 0.298 | 0.33 | 0.213 | 0.122 | 0.916 | 0.571 | 0.668 | 0.752 | 0.725 | 0.736 | 0.736 | 0.539 | 0.163 |
| RERF-LC-KJ | 1.18 | 1.21 | 0.856 | 0.311 | 0.426 | 0.505 | 0.5 | 0.204 | 0.809 | 0.811 | 0.662 | 0.695 | 0.603 | 0.884 | 0.964 | 0.659 | 0.242 |
| NCI-H1650 | 0.186 | 0.202 | 0.205 | 0.21 | 0.532 | 0.436 | 0.392 | 0.148 | 0.577 | 0.447 | 0.594 | 0.633 | 0.373 | 0.899 | 0.776 | 0.75 | 0.193 |
| BEN | 0.303 | 0.307 | 0.231 | 0.361 | 0.391 | 0.459 | 0.501 | 0.597 | 0.562 | 0.695 | 0.526 | 0.599 | 0.589 | 1.03 | 1.1 | 1.03 | 0.809 |
